Four molecules from US11787796B2, “Plasma Kallikrein inhibitors and uses thereof” (Takeda Pharmaceutical Company Limited, priority 2019, dated 2023) can be followed below.

As a reminder, the EC50 is the concentration needed to bring the measured effect to its halfway point.

For the experiment, the target named is human activated kallikrein enzyme (Homo sapiens (Human), UniProt P03952). The experiment in a line: Plasma kallikrein inhibition assay with fluorogenic peptide substrate, 500 pM activated kallikrein format. Type of experiment: biochemical. Conditions: 500 pM activated kallikrein; 300 uM Pro-Phe-Arg-7-amido-4-methylcoumarin substrate; 30 min preincubation, 10 min reaction at RT; read-out: Primary Dose Response Assay: Average EC50. In short, it runs like this:
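Pro-Phe-Arg-7-amido-4-methylcoumarin substrate (300 uM) started reactions after a 30 min RT enzyme–inhibitor preincubation. This format used 500 pM activated human kallikrein in Tris pH 7.5 buffer with EDTA, NaCl, PEG-400 and Triton X-100. AMC fluorescence (380/460 nm) was measured after 10 min at RT.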

Sequence of human activated kallikrein enzyme (P03952 391-638): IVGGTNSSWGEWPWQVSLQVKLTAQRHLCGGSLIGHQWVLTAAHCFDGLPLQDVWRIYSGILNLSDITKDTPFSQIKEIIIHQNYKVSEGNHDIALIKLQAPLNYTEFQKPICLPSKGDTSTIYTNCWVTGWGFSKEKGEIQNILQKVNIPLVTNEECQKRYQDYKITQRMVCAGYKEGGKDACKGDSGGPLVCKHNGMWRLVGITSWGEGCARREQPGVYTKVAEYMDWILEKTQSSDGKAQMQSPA
Sequence of human activated kallikrein enzyme (P03952 20-390 partner): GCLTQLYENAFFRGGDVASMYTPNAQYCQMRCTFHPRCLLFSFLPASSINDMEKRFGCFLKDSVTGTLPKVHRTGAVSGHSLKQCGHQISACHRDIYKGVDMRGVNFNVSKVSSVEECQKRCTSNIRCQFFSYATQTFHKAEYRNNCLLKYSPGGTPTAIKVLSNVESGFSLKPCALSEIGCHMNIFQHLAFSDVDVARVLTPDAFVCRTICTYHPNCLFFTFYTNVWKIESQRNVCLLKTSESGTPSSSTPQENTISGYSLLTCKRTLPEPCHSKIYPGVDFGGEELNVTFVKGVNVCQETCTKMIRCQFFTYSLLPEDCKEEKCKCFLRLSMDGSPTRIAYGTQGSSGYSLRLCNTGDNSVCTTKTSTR

On to `COc1ccc(-n2cnnn2)c(CNC(=O)c2cn(Cc3cn4cc(C5CC5)cc(CN)c4n3)nn2)c1F` [Example I-25, 1-((8-(aminomethyl)-6-cyclopropylimidazo[1,2-a]pyridin-2-yl)methyl)-N-(2-fluoro-3-methoxy-6-(1H-tetrazol-1-yl)benzyl)-1H-1,2,3-triazole-4-carboxamide], for which the EC50 is at most 1 nM.
Take `COc1ccc(-c2cnc(C(=O)O)nc2)c(CNC(=O)c2cn(Cc3cn4cc(C5CC5)ccc4n3)nn2)c1F` [Example I-74, 5-(2-((1-((6-cyclopropylimidazo[1,2-a]pyridin-2-yl)methyl)-1H-1,2,3-triazole-4-carboxamido)methyl)-3-fluoro-4-methoxyphenyl)pyrimidine-2-carboxylic Acid]: the EC50 fell in the range of 1 to 10 nM.
For `Cc1cc(C#N)cc(C)c1CNS(=O)(=O)c1cnn(Cc2cn3cc(C4CC4)ccc3n2)c1` [Example I-43, N-(4-cyano-2,6-dimethylbenzyl)-1-((6-cyclopropylimidazo[1,2-a]pyridin-2-yl)methyl)-1H-pyrazole-4-sulfonamide], the half-maximal effective concentration (EC50) is over 7100 nM.
For the molecule `COC(=O)c1ccc(-c2ccc(OC)c(F)c2CNC(=O)c2cn(Cc3cn4cc(C5CC5)ccc4n3)nn2)cc1` [Example I-87, Methyl 2′-((1-((6-cyclopropylimidazo[1,2-a]pyridin-2-yl)methyl)-1H-1,2,3-triazole-4-carboxamido)methyl)-3′-fluoro-4′-methoxy-[1,1′-biphenyl]-4-carboxylate], the EC50 was 10 to 100 nM.
